This note sets out measurements from US11104968B2, “Site-specific conjugation of linker drugs to antibodies and resulting ADCS” (Byondis B.V., priority 2014, dated 2021).

Molecules are shown by their SMILES. pIC50: −log10 of the molar value. Starred links: 1 amine or outer side, 2 acyl side, 3 side chain; linkers in the order of their positions; H or OH if unused. Non-standard residues stand in square brackets, D forms with d. Residues, ends and D or L forms follow the SMILES beside them. *: point of attachment. Dolaproine = CO[C@@H]([C@@H]1CCCN1)[C@@H](C)C(=O)O; Hexanoyl(6-maleimido) = O=C1C=CC(=O)N1CCCCCC(=O)*; Dil = CC[C@H](C)[C@H](NC)[C@@H](CC(=O)O)OC; PABC = O=C(OCc1ccc(N[*:1])cc1)[*:2]; X1 = C[C@@H](N*)[C@@H](O)c1ccccc1; Cit = NC(=O)NCCC[C@H](N)C(=O)O; NMeV = CN[C@H](C(=O)O)C(C)C

Assay [1] relates to PSMA-positive cell line LNCaP-C4.2. As to the kind of experiment: In vitro cytotoxicity, PSMA-positive cell line. Particulars: for % efficacy: at the highest concentration tested (~100 nM). Type of assay: cell-based, human.
The subject of assay [2] is 5T4-positive cell line MDA-MB-468. As to the kind of experiment: In vitro cytotoxicity, 5T4-positive cell line. The class given is cell-based, human. Particulars: anti-5T4-vc-seco-DUBA ADCs. As to the method: The potencies of the engineered anti-5T4 ADCs were equal to the conventionally linked ADC H8-wt on 5T4-expressing MDA-MB-468 cells (IC50 between 0.07 and 0.09 nM, Table 6).

In general, pIC50 refers to the IC50 on a negative log10 scale, so that one unit is a factor of ten. As to `Cc1cccc2c(OC(=O)N(CCOCCO)CCN(C)C(=O)OCc3ccc(NC(=O)[C@H](CCCNC(N)=O)NC(=O)[C@@H](NC(=O)OCCOCCN4C(=O)C=CC4=O)C(C)C)cc3)cc3c(c12)[C@H](CCl)CN3C(=O)c1cn2cc(NC(=O)c3ccc(O)cc3)ccc2n1` [Free linker drug, vc-seco-DUBA], the “% efficacy” value in assay [1] (anti-PSMA-vc-seco-DUBA ADCs) is listed as 98%; in assay [2] (at the highest concentration tested (~100 nM)), 94%. The pIC50 was 10.70 in assay [1] (anti-PSMA-vc-seco-DUBA ADCs, based on drug equivalents) and 10.70 in assay [2].

As to `CC[C@H](C)[C@@H]([C@@H](CC(=O)N1CCC[C@H]1[C@H](OC)[C@@H](C)C(=O)N[C@H](C)[C@@H](O)c1ccccc1)OC)N(C)C(=O)[C@@H](NC(=O)[C@H](C(C)C)N(C)C(=O)OCc1ccc(NC(=O)[C@H](CCCNC(N)=O)NC(=O)[C@@H](NC(=O)CCCCCN2C(=O)C=CC2=O)C(C)C)cc1)C(C)C` [Free linker drug (vc-MMAE), vc-MMAE] ({Hexanoyl(6-maleimido)}-V[Cit][PABC][NMeV]V[Dil][Dolaproine]-X1), in assay [1] (anti-PSMA-vc-MMAE ADCs), the pIC50 is 9.64 and the “% efficacy” value is listed as 94%.
